# Test system: LG0567-F671-PDC complex spheroids viability
# Experiment: Anticancer human tumor LG0567-F671-PDC patient-derived lung adenocarcinoma cell line growth inhibition [RAS]
# Conditions: for IC50: curve of first compound; for viability, T/C: stronger effect = lower value
# Method in brief: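 Agents were tested in combination matrices in half-log decrements from a top concentration at or near clinical Cmax (10 microM if undetermined). Targets were multi-cell spheroids of tumour lines plus HUVEC and MSC stromal cells.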
# [1] = second compound 0.00316 µM, first compound 0.00316 µM
# [2] = second compound 0.00316 µM, first compound 0.01 µM
# [3] = second compound 0.00316 µM, first compound 0.0316 µM
# [4] = second compound 0.00316 µM, first compound 0.1 µM
# [5] = second compound 0.00316 µM, first compound 0.316 µM
# [6] = second compound 0.00316 µM, first compound 1 µM
# [7] = second compound 0.01 µM, first compound 0.00316 µM
# [8] = second compound 0.01 µM, first compound 0.01 µM
# [9] = second compound 0.01 µM, first compound 0.0316 µM
# [10] = second compound 0.01 µM, first compound 0.1 µM
# [11] = second compound 0.01 µM, first compound 0.316 µM
# [12] = second compound 0.01 µM, first compound 1 µM
# [13] = second compound 0.0316 µM, first compound 0.00316 µM
# [14] = second compound 0.0316 µM, first compound 0.01 µM
# [15] = second compound 0.0316 µM, first compound 0.0316 µM
# [16] = second compound 0.0316 µM, first compound 0.1 µM
# [17] = second compound 0.0316 µM, first compound 0.316 µM
# [18] = second compound 0.0316 µM, first compound 1 µM
# [19] = second compound 0.1 µM, first compound 0.00316 µM
# [20] = second compound 0.1 µM, first compound 0.01 µM
# [21] = second compound 0.1 µM, first compound 0.0316 µM
# [22] = second compound 0.1 µM, first compound 0.1 µM
# [23] = second compound 0.1 µM, first compound 0.316 µM
# [24] = second compound 0.1 µM, first compound 1 µM
# [25] = second compound 0.316 µM, first compound 0.00316 µM
# [26] = second compound 0.316 µM, first compound 0.01 µM
# [27] = second compound 0.316 µM, first compound 0.0316 µM
# [28] = second compound 0.316 µM, first compound 0.1 µM
# [29] = second compound 0.316 µM, first compound 0.316 µM
# [30] = second compound 0.316 µM, first compound 1 µM
# [31] = second compound 1 µM, first compound 0.00316 µM
# [32] = second compound 1 µM, first compound 0.01 µM
# [33] = second compound 1 µM, first compound 0.0316 µM
# [34] = second compound 1 µM, first compound 0.1 µM
# [35] = second compound 1 µM, first compound 0.316 µM
# [36] = second compound 1 µM, first compound 1 µM
# 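Also: spheroids exposed to compound for seven days before readout.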
# 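For IC50 in this document: luminescence signal used as a proxy for viable cells.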
smiles,measurement,setting,value
C=CC(=O)Nc1cc(Nc2nccc(-c3cn(C)c4ccccc34)n2)c(OC)cc1N(C)CCN(C)C + C=CC(=O)N1CCN(c2nc(OCC3CCCN3C)nc3c(F)c(-c4nc(N)cc(C)c4C(F)(F)F)c(Cl)cc23)C(C)C1,IC50,second compound 0.00316 µM,< 3.16 nM
same,IC50,second compound 0.01 µM,< 3.16 nM
same,IC50,second compound 0.0316 µM,< 3.16 nM
same,IC50,second compound 0.1 µM,< 3.16 nM
same,IC50,second compound 0.316 µM,< 3.16 nM
same,IC50,second compound 1 µM,< 3.16 nM
same,"viability, T/C",[1],18.7%
same,"viability, T/C",[2],15.6%
same,"viability, T/C",[3],12.6%
same,"viability, T/C",[4],12.6%
same,"viability, T/C",[5],4.81%
same,"viability, T/C",[6],3.52%
same,"viability, T/C",[7],15.1%
same,"viability, T/C",[8],12.1%
same,"viability, T/C",[9],10%
same,"viability, T/C",[10],8.19%
same,"viability, T/C",[11],4.72%
same,"viability, T/C",[12],2.49%
same,"viability, T/C",[13],13.3%
same,"viability, T/C",[14],12.7%
same,"viability, T/C",[15],9.76%
same,"viability, T/C",[16],7.26%
same,"viability, T/C",[17],6.15%
same,"viability, T/C",[18],2.62%
same,"viability, T/C",[19],15%
same,"viability, T/C",[20],11.8%
same,"viability, T/C",[21],9.84%
same,"viability, T/C",[22],7.87%
same,"viability, T/C",[23],4.28%
same,"viability, T/C",[24],2.86%
same,"viability, T/C",[25],14%
same,"viability, T/C",[26],11.4%
same,"viability, T/C",[27],9.92%
same,"viability, T/C",[28],6.96%
same,"viability, T/C",[29],4.73%
same,"viability, T/C",[30],3.38%
same,"viability, T/C",[31],13.3%
same,"viability, T/C",[32],12.2%
same,"viability, T/C",[33],11.4%
same,"viability, T/C",[34],10.6%
same,"viability, T/C",[35],4.57%
same,"viability, T/C",[36],3.23%
O=C(c1ccc(F)c(F)c1Nc1ccc(I)cc1F)N1CC(O)([C@@H]2CCCCN2)C1 + C=CC(=O)N1CCN(c2nc(OCC3CCCN3C)nc3c(F)c(-c4nc(N)cc(C)c4C(F)(F)F)c(Cl)cc23)C(C)C1,IC50,second compound 0.00316 µM,< 3.16 nM
same,IC50,second compound 0.01 µM,< 3.16 nM
same,IC50,second compound 0.0316 µM,< 3.16 nM
same,IC50,second compound 0.1 µM,< 3.16 nM
same,IC50,second compound 0.316 µM,< 3.16 nM
same,IC50,second compound 1 µM,< 3.16 nM
same,"viability, T/C",[1],15.6%
same,"viability, T/C",[2],16.9%
same,"viability, T/C",[3],8.91%
same,"viability, T/C",[4],8.75%
same,"viability, T/C",[5],3.51%
same,"viability, T/C",[6],1.58%
same,"viability, T/C",[7],12.4%
same,"viability, T/C",[8],11.6%
same,"viability, T/C",[9],10.7%
same,"viability, T/C",[10],5.03%
same,"viability, T/C",[11],3.8%
same,"viability, T/C",[12],1.56%
same,"viability, T/C",[13],11.8%
same,"viability, T/C",[14],8.27%
same,"viability, T/C",[15],7.53%
same,"viability, T/C",[16],5.24%
same,"viability, T/C",[17],3.75%
same,"viability, T/C",[18],1.45%
same,"viability, T/C",[19],11.5%
same,"viability, T/C",[20],9.3%
same,"viability, T/C",[21],6.61%
same,"viability, T/C",[22],5.01%
same,"viability, T/C",[23],2.96%
same,"viability, T/C",[24],1.42%
same,"viability, T/C",[25],12.2%
same,"viability, T/C",[26],9.6%
same,"viability, T/C",[27],6.94%
same,"viability, T/C",[28],5.35%
same,"viability, T/C",[29],3.61%
same,"viability, T/C",[30],1.71%
same,"viability, T/C",[31],12.3%
same,"viability, T/C",[32],10.1%
same,"viability, T/C",[33],7.82%
same,"viability, T/C",[34],5.94%
same,"viability, T/C",[35],4.07%
same,"viability, T/C",[36],1.77%

# From PubChem BioAssay AID2060889 (Molecular Pharmacology Branch, DTP, NCI, 2025)
